SMILES strings stand for the structures.

The test system of this test is Blumeria graminis fsp. hordei. As to the kind of experiment: In vivo preventive test on Blumeria graminis (barley). The settings on record: 500 ppm of active ingredient, evaluated 7 days after inoculation. On the procedure:
EXAMPLE B: IN VIVO PREVENTIVE TEST ON BLUMERIA GRAMINIS (BARLEY) Solvent: 49 parts by weight of N,N-dimethylacetamide Emulsifier: 1 part by weight of alkylaryl polyglycol ether To produce a suitable preparation of active compound, 1 part by weight of active compound or active compound combination is mixed with the stated amounts of solvent and emulsifier, and the concentrate is diluted with water to the desired concentration. To test for preventive activity, young plants are sprayed with the preparation of active compound or active compound combination at the stated rate of application. After the spray coating has been dried, the plants are dusted with spores of Blumeria graminis fsp. hordei. The plants are placed in the greenhouse at a temperature of approximately 18° C. and a relative atmospheric humidity of approximately 80% to promote the development of mildew pustules. The test is evaluated 7 days after the inoculation. 0% means an efficacy which corresponds to that of the untreated control, while an efficacy of 100% means that no disease is observed. Under these conditions, total protection is observed at a dose of 500 ppm of active ingredient with the following compounds from table B: […]
As for `Cc1nn(C)c(F)c1C(=O)N(C1CC1)C(C)C1Cc2ccccc2C1` (centres unmarked) [Example 11], the Efficacy is on record as 100%. With `CCc1nn(C)c(F)c1C(=O)N(C1CC1)C(C)C1Cc2ccccc2C1` (centres unmarked) [Example 12] the figure was 100%. For `CC(C1Cc2ccccc2C1)N(C(=O)c1cn(C)nc1C(F)F)C1CC1` (centres unmarked) [Example 13], the Efficacy is on record as 100%. With `CC(C1Cc2ccccc2C1)N(C(=O)c1c(C(F)F)nn(C)c1F)C1CC1` (centres unmarked) [Example 14, N-cyclopropyl-3-(difluoromethyl)-N-[1-(indan-2-yl)ethyl]-5-fluoro-1-methyl-1H-pyrazole-4-carboxamide] the figure was 100%; with `CC(C1CCc2ccccc2C1)N(C(=O)c1c(C(F)F)nn(C)c1F)C1CC1` (centres unmarked) [Example 16], 100%.
